For one data set, the system named is p-STAT5. The data set can be described thus: FLT3-ITD downstream signaling, p-STAT5 western blot in MV4-11 cells. Type of data set: cell-based. Particulars: Homo sapiens, normalized to Crenolanib, read-out: pSTAT5 IC50. Here is the method: (§1) MV-4-11 and EoL-1 were plated at a density 20,000 cells/well in a 96 well plate. Cells were incubated with DMSO, 1 µM docetaxel, or an 8-pt, 2-fold dose response of 26 in quadruplicate. On day 3 and day 7, cells from DMSO-treated wells were counted and cells from all wells were split back so that the DMSO-treated wells matched the original seeding density. Cells were centrifuged in 96 well filter plates (Sigma) and resuspended in fresh compound-containing media.
(§2) On day 10, cells were incubated with alamarBlue™ HS Cell Viability Reagent (Invitogen) (10 µL of alamarBlue in a well of 90 µL media) for 2 hours at 37C/5% CO2. Fluorescence was measured on the EnVision Plate reader (Perkin Elmer) at an ex/em of 560/590 nm. Raw fluorescence values were normalized to positive and negative controls (DMSO, 1 µM docetaxel) to get a % viability. Replicates were averaged and dose responses were plotted on a 4 Parameter Logistic […]
(§3) MV-4-11 cells were plated in 6 well plates overnight in reduced serum media (IMDM + 0.5% FBS). The following day, compound or vehicle were added to the plate for a final DMSO concentration of 0.1% and incubated at 37 C for 2 hours.
(§4) Cells were washed with 1X PBS (Gibco 10010-023), and lysed in RIPA buffer with added inhibitors. Protein concentration was determined using a BCA assay (Thermo Scientific 23225). […]

The subject of a further data set is MOLM-16 (FLT3wt). Description: Cell viability assay, MOLM-16. The format is cell-based. The settings on record: Homo sapiens, MOLM16.
Another data set concerns the target T1, FLT3 (Homo sapiens, UniProt P36888).
T1 sequence (P36888 27-993): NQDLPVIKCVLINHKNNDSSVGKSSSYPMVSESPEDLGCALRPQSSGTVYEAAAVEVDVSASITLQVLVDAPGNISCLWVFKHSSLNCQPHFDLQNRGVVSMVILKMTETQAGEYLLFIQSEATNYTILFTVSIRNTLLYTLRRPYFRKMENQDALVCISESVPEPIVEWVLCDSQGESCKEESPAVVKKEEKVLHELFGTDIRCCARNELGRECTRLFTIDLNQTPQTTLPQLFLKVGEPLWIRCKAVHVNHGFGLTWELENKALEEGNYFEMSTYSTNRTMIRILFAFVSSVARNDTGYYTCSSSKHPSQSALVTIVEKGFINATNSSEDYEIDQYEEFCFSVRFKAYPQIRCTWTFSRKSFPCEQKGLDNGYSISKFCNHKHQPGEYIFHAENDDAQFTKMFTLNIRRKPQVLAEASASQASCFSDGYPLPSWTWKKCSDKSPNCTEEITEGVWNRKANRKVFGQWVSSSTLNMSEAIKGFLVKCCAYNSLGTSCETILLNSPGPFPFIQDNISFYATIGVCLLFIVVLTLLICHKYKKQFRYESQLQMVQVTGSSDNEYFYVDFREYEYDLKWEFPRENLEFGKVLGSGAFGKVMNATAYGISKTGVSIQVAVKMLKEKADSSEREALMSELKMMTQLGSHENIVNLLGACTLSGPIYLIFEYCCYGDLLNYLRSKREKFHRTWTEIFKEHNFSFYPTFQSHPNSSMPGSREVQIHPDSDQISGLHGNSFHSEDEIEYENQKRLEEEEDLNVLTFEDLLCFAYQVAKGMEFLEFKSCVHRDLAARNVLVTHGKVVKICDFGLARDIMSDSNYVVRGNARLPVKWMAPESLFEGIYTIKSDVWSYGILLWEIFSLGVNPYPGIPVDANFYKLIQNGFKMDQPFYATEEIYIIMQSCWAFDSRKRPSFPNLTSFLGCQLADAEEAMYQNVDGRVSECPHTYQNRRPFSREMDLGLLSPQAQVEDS
Description: Radiometric in vitro kinase activity assay, FLT3. Type of data set: biochemical. The settings on record: wild-type FLT3, radiometric, up to 10 μM.

A short description of data set [1]: PK of 26 in plasma and pancreas of BALB/c nude mice. The format is in vivo, mouse. The settings on record: 0.3 to 30 mg/kg single oral gavage. On the procedure: (§5) For PK analysis of pyrrolopyrimidine analogs in mouse, rat, and dog plasma, the oral formulation was prepared as a solution containing 20% (w/v) Captisol in 25 mM NaH2PO4 buffer (pH 2). Compounds were administered orally by gavage at 10 mg/kg to female CD1 mice. After dosing, plasma samples were collected to characterize the PK profiles at 0.25, 0.5, 1, 2, 4, 8, 12 and 24 h post-dose. The plasma concentration of compound was determined by protein precipitation with acetonitrile and liquid chromatography with mass spectrometric detection (LC-MS/MS). Parameters were estimated using Phoenix (WinNonlin) pharmacokinetic software version 6.1.0 using a non-compartmental approach consistent with the oral route of administration. PK analysis of 26 in plasma and pancreas followed a similar analytical method as above, with minor modifications. Compound 26 was suspended in a vehicle consisting of 0.5% methylcellulose (400 cP) and 0.1% Tween80 in water and administered to BALB/c nude mice by oral gavage at 0.3, 1, 3, 10, 30 mg/kg. Plasma and pancreas were sampled from 5 mice per group following a single oral administration at 1, 4, 8, 12, 24 h post-dose.

The test system of the next data set is phosphoPERK (T980). Description: PERK autophosphorylation (pPERK/PERK) in mouse pancreas after oral dosing. The format is in vivo. The settings on record: 30 mg/kg oral, 1 h. Here is the method:
as §5
Total protein was extracted from pancreas tissues sampled during PK studies described above. […]

The test system of a further data set is MV4-11 (FLT3-ITD). Description: Cell viability assay, MV4-11. Type of data set: cell-based. The settings on record: Homo sapiens. On the procedure: as §1, §2, §3, §4

The structures appear in SMILES notation. Some results are limits rather than exact numbers.

What is called IC50 is the concentration needed to halve the response being measured.

Consider `Cc1nc(N)c2c(-c3ccc(NC(=O)[C@H](O)c4cccc(C(F)(F)F)c4)cc3C)cn(C)c2n1` [Compound 26], for which the IC50 is 64 nM with p-STAT5, more than 10000 nM in the data set with MOLM-16 (FLT3wt), more than 1000 nM against FLT3 and 226 nM in the data set with MV4-11 (FLT3-ITD). Besides, in data set [1], the “exposure in plasma and pancreas” value is “dose-proportionate exposure”. In the data set with phosphoPERK (T980), the “inhibition of pPERK/PERK in pancreas” value is “approximately 80%”.
